Results reported in US20240317762A1, “PHTHALAZINONE-BASED PARP-1 INHIBITORS” (Oregon Health & Science University, priority 2021, published 2024).

Key:
PARP-1 [1] = target: T1, PARP-1 (Homo sapiens, UniProt P09874); experiment: PARP-1 PARylation after washout (off-rate analysis); assay type: cell-based; settings: 300 nM, 30 minutes, no washout; read-out: inhibition of PARP-1-mediated PARylation activity prior to washout
Experimental: For off-rate analysis, after 30 minute pre-treatment with indicated inhibitors, cells were washed once before incubating for 0, 3, 6, or 12 hours in fresh media. Following release times, cells were incubated with PDD 00017273 (10 μM) for 30 minutes before proceeding using the same western blot protocol detailed above. Statistical significance was established through multiple unpaired t-tests with nonlinear regression fit analysis.
FIGS. 6A-6E. […] 0.1 μM ad-olaparib (chemical structure indicated in panel a) was added to the cells for 1 hour before undergoing a UV treatment for 5 minutes in cold PBS. Cells were lysed and sonicated in PBS (1% Triton X-100+1% SDS), clicked with TAMRA-azide and run out on SDS-PAGE. The gel was imaged for TAMRA and probed for PARP-1 (Bethyl Laboratories), and alpha-tubulin (X). FIGS. 6B, 6D) Quantification of western blot images. TAMRA or ADPr values are normalized to PARP-1 within each replicate and plotted as percentage compared to DMSO. Error bars indicate SEM (n=3-4). Statistical significance of off-rate calculated via multiple t-tests (p<0.05). […] Cells were subsequently treated with PARGi (10 μM) for 30 minutes, lysed using RIPA buffer, run out on SDS-PAGE, and probed for ADPr (Cell Signaling) and PARP-1 (Bethyl Laboratories). […] IC50 values were calculated using R statistical software.

PARP-1 [2] = target: T1, PARP-1; experiment: PARP-1 auto-PARylation activity assay in cells; assay type: cell-based
Experimental: Cells were washed with PBS, and lysed in RIPA buffer (50 mM Tris-HCl [pH 8.0], 150 mM NaCl, 0.1% SDS, 1% Triton X-100, 1× cOmplete™ protease inhibitors (Roche), and 1 μM Veliparib). […] Following quantification, 4× Laemmli sample buffer with 5% β-mercaptoethanol was added to 25-50 μg of protein.
Membrane blots were blocked with 5% milk-PBST for 1 h at RT, followed by incubation with a rabbit pan-ADP-ribose binding reagent (Cell Signaling), a rabbit PARP-1 antibody (Bethyl Laboratories), or a mouse b-actin antibody (Santa Cruz Biotechnology) for 2 h at RT, followed by incubation with HRP-conjugated secondary antibodies. […] Blots were imaged for chemiluminescent signal on a ChemiDoc MP system (BioRad). Statistical significance was established through multiple unpaired t-tests with nonlinear regression fit analysis.
FIGS. 5A-5F. […] An unlabeled competitor was added and the decrease in fluorescence polarization was measured across time. […] Error bars represent SEM. […] Error bars represent SEM. […] Cells were subsequently lysed using RIPA buffer, run out on SDS-PAGE, and probed for ADPr (Cell Signaling) and PARP-1 (Bethyl Laboratories). FIG. 5F) Quantification of western blot images. ADPr values are normalized to PARP-1 within each replicate and plotted as percentage compared to DMSO. Error bars indicate SEM (n=3).

[3] = test system: Ewing sarcoma cell line EW-8; experiment: ES-8 viability screen (CellTiter-Glo); assay type: cell-based
Experimental: Cell viability was measured using the CellTiter-Glo (Promega, G7573) assay and read using an Envision (PerkinElmer) plate reader. Compound source plates (96-well) were prepared by solubilizing each drug in DMSO to a maximum concentration of 1-50 mM, then arraying samples in 10-point dose-response with 3-fold dilution. Positive and negative controls (staurosporine at 10 mM and DMSO, respectively) were added to the source plates. Drug was transferred from the source plate to the assay plate using a Biomek FX (Beckman Coulter) liquid handler equipped with a pin tool which transferred ˜100 nl into a final volume of 100 μl, resulting in ˜1000-fold dilution. At least two biological replicates (assay performed on different day with same drug plate and independent cell preparation) were obtained for each drug. To analyze the assay, the relative light unit signal in each well was first log 2 transformed, then normalized by subtracting the mean of the negative controls wells on each plate.
(§1) FIGS. 6A-6E. […] 0.1 μM ad-olaparib (chemical structure indicated in panel a) was added to the cells for 1 hour before undergoing a UV treatment for 5 minutes in cold PBS. Cells were lysed and sonicated in PBS (1% Triton X-100+1% SDS), clicked with TAMRA-azide and run out on SDS-PAGE. The gel was imaged for TAMRA and probed for PARP-1 (Bethyl Laboratories), and alpha-tubulin (X). FIGS. 6B, 6D) Quantification of western blot images. TAMRA or ADPr values are normalized to PARP-1 within each replicate and plotted as percentage compared to DMSO. Error bars indicate SEM (n=3-4). Statistical significance of off-rate calculated via multiple t-tests (p<0.05). […] Cells were subsequently treated with PARGi (10 μM) for 30 minutes, lysed using RIPA buffer, run out on SDS-PAGE, and probed for ADPr (Cell Signaling) and PARP-1 (Bethyl Laboratories). FIG. 6E) ES-8 cells were treated with indicated concentration of inhibitors for 72 hours before measuring cell viability using the CellTiter-Glo kit (Promega G7573). IC50 values were calculated using R statistical software.

PARP-1 [4] = target: T1, PARP-1; experiment: in-cell competition labeling with ad-olaparib photoaffinity probe; assay type: cell-based
Experimental: Photocrosslinking in intact cells. HEK293 CRL and PARP-1 KO cells were grown in DMEM for 2 days in a 60 mm dish for 2 days to reach 80-90% confluency. […] Cells were then washed once with PBS, covered with PBS and irradiated for 5 min in the RPR-100 Photochemical Reactor (Rayonet) equipped with 350 nm lamps at 4° C. Cells were lysed on ice in 1% SDS, 1% Triton X-100 and EDTA-free protease inhibitor cocktail (Roche) in PBS for 10 min and then probe sonicated to shear the nuclear DNA. Protein concentration was determined with Bio-Rad Protein assay. The lysate was diluted in PBS to a final Click reaction concentration of 2 mg/mL.
Click Chemistry. Reaction was started by mixing 30 μL of each sample with 15 μL of PBS based 3× Click reaction mixture containing (final concentrations): 100 μM Tris[(1-benzyl-1H-1,2,3triazol-4-yl)methyl]amine (TBTA, Click Chemistry Tools), 1 mM CuSO4, 40 μM tetramethylrhodamine (TAMRA)-azide (Click Chemistry Tools), 1 mM Tris(2-carboxyethyl)phosphine hydrochloride (TCEP, Thermo Fisher) and 15% tert-Butyl alcohol, and let to procced for 1 h at RT while gently shaking. Reactions were stopped by adding 4× Laemmli sample buffer and boiling at 95° C. for 5 min.
In gel fluorescence, western blotting and quantification. Samples were loaded to 8 or 10% SDS-polyacrylamide gels and run until the dye front left the gel. First, in-gel fluorescence was detected with ChemiDoc XRS+ (Biorad) using Rhodamine filter and then the proteins were transferred on nitrocellulose membrane, the membrane was blocked and probed for PARP-1 (1:3000) and alpha-tubulin (1:1000). Both antibodies were from cell signaling. Band intensities we quantified with ImageJ.
as §1

PARP-1 [5] = target: T1, PARP-1; experiment: in vitro PARP-1 auto-PARylation assay (SRPK2 plate assay); assay type: biochemical; set-up: The full-length WT PARP-1 protein used in these assays; made in house
Experimental: IC50 SRPK2 Plate Assays were performed as previously described (21). Log(inhibitor) versus response curves were fit using non-linear regression with variable slope. Mean IC50 values for each compound were derived from a minimum of three separate replicates.

HEK 293T cells = experiment: cell proliferation (MTT) assay; assay type: cell-based, human; settings: MTT, 72 h
Experimental: HEK 293T or HEK 293 PARP-1 KO cells were seeded in a 96 well plate at 1000-2000 cells per well. Following an overnight incubation, MTT reagent, 3-(4,5-dimethylthiazol-2-yl)-2,5-diphenyltetrazolium bromide, or a dosage curve of indicated inhibitor was added to each well in quadruplicate. Following a 3-hour incubation at 37° C., wells containing MTT reagent, were aspirated and lysed with 100 μl DMSO. These wells acting as a no growth control were collected, saved @ −20° C., and replaced with 100 μl water. The plate was placed back into the incubator for a total of 72 hours of inhibitor treatment prior to MTT reagent being added for a final time. Following a 3 hour incubation with the reagent, wells were aspirated, and 100 μl DMSO were added to each well, while the no growth control sample was added back to the plate. Absorbance was read on a SpectraMaxi3 plate reader (Molecular Devices). Percent growth was calculated for analysis. Statistical significance was assigned using individual t-tests between conditions for each inhibitor dosage.
Error bars represent SEM. […] Error bars represent SEM. […] Error bars represent SEM.

PARP-1 [6] = target: T1, PARP-1; experiment: fluorescence polarization DNA binding affinity assay; settings: 5 μM inhibitor; compared to DMSO control
From the text: The full-length WT PARP-1 protein used in these assays was purified as described previously (30).

T1 sequence (P09874 whole entry): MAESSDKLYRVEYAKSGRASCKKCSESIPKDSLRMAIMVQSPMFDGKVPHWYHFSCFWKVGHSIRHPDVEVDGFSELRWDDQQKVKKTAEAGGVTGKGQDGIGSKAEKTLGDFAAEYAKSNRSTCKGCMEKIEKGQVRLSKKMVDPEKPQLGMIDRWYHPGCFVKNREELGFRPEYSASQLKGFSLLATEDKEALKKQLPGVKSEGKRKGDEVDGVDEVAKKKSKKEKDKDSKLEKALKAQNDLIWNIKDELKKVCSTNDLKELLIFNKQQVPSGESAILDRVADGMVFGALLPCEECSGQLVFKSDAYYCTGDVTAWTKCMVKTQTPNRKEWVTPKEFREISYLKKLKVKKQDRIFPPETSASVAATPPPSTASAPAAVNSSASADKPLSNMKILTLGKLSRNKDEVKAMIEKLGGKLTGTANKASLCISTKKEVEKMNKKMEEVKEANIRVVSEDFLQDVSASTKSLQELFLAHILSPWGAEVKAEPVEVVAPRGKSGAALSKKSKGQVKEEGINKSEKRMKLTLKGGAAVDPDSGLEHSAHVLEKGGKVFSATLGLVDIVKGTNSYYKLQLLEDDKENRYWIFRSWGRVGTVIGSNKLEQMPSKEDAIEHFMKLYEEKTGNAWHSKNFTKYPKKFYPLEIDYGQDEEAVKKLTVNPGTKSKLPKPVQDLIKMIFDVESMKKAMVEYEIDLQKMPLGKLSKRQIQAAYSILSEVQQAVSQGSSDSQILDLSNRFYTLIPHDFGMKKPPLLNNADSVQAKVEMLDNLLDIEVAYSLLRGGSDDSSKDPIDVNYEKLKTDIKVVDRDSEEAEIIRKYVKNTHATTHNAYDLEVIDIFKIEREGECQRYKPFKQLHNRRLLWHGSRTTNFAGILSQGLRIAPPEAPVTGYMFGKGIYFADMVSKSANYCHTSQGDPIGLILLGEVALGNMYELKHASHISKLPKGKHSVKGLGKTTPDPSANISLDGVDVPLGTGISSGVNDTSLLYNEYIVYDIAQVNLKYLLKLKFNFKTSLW

## C[C@H]1Cn2c(nnc2C(C)(F)F)CN1C(=O)c1cc(Cc2n[nH]c(=O)c3ccccc23)ccc1F [Pip6, (S)-4-(3-(3-(1,1-difluoroethyl)-6-methyl-5,6,7,8-tetrahydro-[1,2,4]triazolo[4,3-a]pyrazine-7-carbonyl)-4-fluorobenzyl)phthalazin-1(2H)-one]
PARP-1 [1]
  inhibition at 0.3 µM: > 90%
PARP-1 [2]
  fold more potent than AZ0108 in inhibiting PARP-1 PARylation in HEK 293 cells: ~20 fold
PARP-1 [2]; 30 min inhibitor, then PARG inhibitor PDD00017273, read-out: EC50 inhibiting PARP-1 PARylation in HEK 293 cells
  EC50: 2.3 nM
PARP-1 [2]; FIG. 5F, nonlinear regression, read-out: IC50 of dose curves, quantification of western blot (ADPr normalized to PARP-1)
  IC50: 2.26 nM
[3]
  fold more cytotoxic than AZ0108 in Ewing sarcoma cells: ~80 fold
[3]; ratio of EC50 values
  Fold Difference to Pip6: 1
[3]; viability, 72 h
  EC50: 0.24 nM
  EC50 (nM): sub-nanomolar
PARP-1 [4]; 10 μM inhibitor, 0.1 μM ad-olaparib
  labeling of PARP-1 by ad-olaparib after pre-treatment: substantially blocked
PARP-1 [4]; in cells and in vitro
  residence time on PARP-1 compared to AZ0108: longer residence time
PARP-1 [4]; washout (3 h)
  recovery of labeling of PARP-1 by ad-olaparib after washout: not recovered
PARP-1 [5]
  potency against PARP-1 auto-PARylation compared with AZ0108: equipotent
HEK 293T cells; Homo sapiens, HEK-293T, read-out: EC50 cell growth
  EC50: 0.94 nM
HEK 293T cells
  potency in inhibiting cell growth compared with AZ0108: substantially more potent than AZ0108
PARP-1 [6]
  effect on the affinity of PARP-1 for nicked DNA: more pronounced effect on DNA binding than Pip5
